Source: publication PMC5537869, “Role of Zucchini and Its Distinctive Components in the Modulation of Degenerative Processes: Genotoxicity, Anti-Genotoxicity, Cytotoxicity and Apoptotic Effects” (Nutrients, 2017)
Where “and” joins values, the source holds several entries; their conditions need not be identical. Equal values may be shown once.

Experiments:
[1] = test system: Drosophila melanogaster transheterozygous larvae; assay: Genotoxicity (single treatment), Drosophila wing spot test (SMART); type: in vivo; design: key to Mann-Whitney Test: n.s.: non-significant; conditions: for Mann-Whitney Test: vs negative control
Description: (§1) The principles and basic procedures for the Drosophila wing spot test have been described by Graf et al., and in previous works of our group. Two strains of flies carrying wing genetic markers on the left arm of chromosome 3: multiple wing […] used. The transheterozygous larvae were obtained by crossing […] (Third Multiple 3), Bd^S(Beaded […]) virgin females. Hybrid eggs derived from crossing optimally fertile flies were collected over an 8 h period. […] Concurrent negative controls with the solvent alone (water) and positive controls with hydrogen peroxide (120 mM) were also run. Anti-genotoxicity tests were carried out by mixing the mutagen (hydrogen peroxide, 120 mM) with the compounds solution. After emergence, adult flies were collected from the treatment vials and stored in 70% ethanol. The wings of the flies were removed under a stereomicroscope using a pair of entomological tweezers, similar number of males and females-wings were mounted in Faure's solution on microscope slides and inspected, under 400× magnification, for the presence of clones of cells. The mutant clones were classified into three types: […] The appearance of twin spots indicated the recombinogenic activity of the chemotherapeutic agent (Figure 1). The frequencies of spots per fly of treated series were compared with its corresponding negative control series (water) to analyze Somatic Mutation and Recombination Test (SMART) data. For maximum power, statistical analyses were done exclusively for the total number of spots recovered. The non-parametric U test of Mann, Whitney and Wilcoxon was used to avoid weak positive and inconclusive results on SMART and to achieve a well-defined statistical diagnosis whether a given treatment should be regarded as genotoxic or not. The inhibition percentages (IP) were calculated using the total spots per wing with the following formula [16, 36]: IP = ((Genotoxine alone - Genotoxine plus active compound)/Genotoxine alone) × 100

[2] = test system: Drosophila melanogaster transheterozygous larvae; assay: Anti-genotoxicity (combined treatment with hydrogen peroxide 120 mM), Drosophila wing spot test (SMART); type: in vivo; design: key to Mann-Whitney Test: n.s.: non-significant; conditions: combined treatment with H2O2 120 mM; for Mann-Whitney Test: vs negative control
Description: as §1

HL60 cells [3] = assay: Cytotoxicity assay, trypan blue exclusion; type: cell-based, human; conditions: for cytotoxic effect (tumoral viability): HL60, 72 h, trypan blue exclusion, at the tested concentrations
Description: Therefore, all the cells that exclude the dye are viable. Non-viable cells stained purple-violet, whereas viable ones remained unstained. Trypan blue was added to cell cultures at a 1:1 ratio, and 20 μL of cell suspension was loaded into a Neubauer chamber. The cells were counted under an inverted microscope at 100× magnification. […] Curves are expressed as survival percentage with respect to controls growing at 72 h. All data represent the average of at least three independent experiments.

HL60 cells [4] = assay: Nucleosomal DNA fragmentation assay; type: cell-based, human; conditions: HL60, 5 h, same concentrations as in the cytotoxicity assay, agarose gel
Description: The HL60 tumoral cell line was used with the aim of analyse the apoptotic induction. […] A non-treated cells control was included for each experiment. For DNA fragmentation, treated cells were collected, were centrifuged at 4000 rpm for 5 min and washed with PBS. […] The agarose gels were run at 50 V for 90 min in TBE (Tris/Borate/EDTA) buffer and then observed and photographed under UV light. For Annexin V-PI test, Annexin V Apoptosis Detection Kit ([…] Biotech S.L., Cordoba, Spain) was used. Briefly, cells were resuspended in 100 μL of Binding buffer solution 1× and subsequently, 5 μL AnnexinV-FITC (Fluorescein isothiocyanate) and 10 μL propidium iodide were added, and samples were incubated for 10 min at room temperature in darkness, and flow cytometry (Beckman Coulter Inc., Brea, CA, USA) was then used to analyze the rate of apoptosis.

`O=C1OC(C(O)CO)C(=O)C1=O` (centres unmarked) [DHA, dehydroascorbic acid] was tested. Which “Large Spots (>2 Cells) m = 5” value ([1]; single treatment, 0.003 mM) did it give?
The value was 0.03 (1) clones per wing.

What about the “Small Spots (1–2 Cells) m = 2” value ([1]; single treatment, 0.003 mM) of the same molecule?
The value was 0.10 (4) clones per wing.

What about the “Total Spots m = 2” value ([1]; single treatment, 0.003 mM) of the same molecule?
Its value is 0.13 (5) clones per wing.

What about the “Twin Spots m = 5” value ([1]; single treatment, 0.003 mM) of the same molecule?
Its value is 0.00 (0) clones per wing.

What about the “Mann-Whitney Test” value ([1]; single treatment, 0.003 mM) of the same molecule?
The value was “n.s”.

What about the “Large Spots (>2 Cells) m = 5” value ([1]; single treatment, 0.107 mM) of the same molecule?
The value was 0.03 (1) clones per wing.

What about the “Small Spots (1–2 Cells) m = 2” value ([1]; single treatment, 0.107 mM) of the same molecule?
Its value is 0.15 (6) clones per wing.

What about the “Total Spots m = 2” value ([1]; single treatment, 0.107 mM) of the same molecule?
Its value is 0.18 (7) clones per wing.

What about the “Twin Spots m = 5” value ([1]; single treatment, 0.107 mM) of the same molecule?
Its value is 0.00 (0) clones per wing.

What about the “Mann-Whitney Test” value ([1]; single treatment, 0.107 mM) of the same molecule?
Its value is “n.s”.

And the “Total Spots m = 2” value ([1]; single treatment, 0.107 mM, listed as dehydroascorbic acid)?
Its value is 0.18 clones per wing.

And the “Large Spots (>2 Cells) m = 5” value ([2]; 0.003 mM)?
The value was 0.00 (0) clones per wing.

And the “Small Spots (1–2 Cells) m = 2” value ([2]; 0.003 mM)?
The value was 0.08 (3) clones per wing.

And the “Total Spots m = 2” value ([2]; 0.003 mM)?
The value was 0.08 (3) clones per wing.

What about the “Twin Spots m = 5” value ([2]; 0.003 mM) of the same molecule?
Its value is 0.00 (0) clones per wing.

What about the “Mann-Whitney Test” value ([2]; 0.003 mM) of the same molecule?
Its value is “n.s”.

And the “Large Spots (>2 Cells) m = 5” value ([2]; 0.107 mM)?
The value was 0.03 (1) clones per wing.

What about the “Small Spots (1–2 Cells) m = 2” value ([2]; 0.107 mM) of the same molecule?
Its value is 0.10 (4) clones per wing.

And the “Total Spots m = 2” value ([2]; 0.107 mM)?
The value was 0.13 (5) clones per wing.

What about the “Twin Spots m = 5” value ([2]; 0.107 mM) of the same molecule?
Its value is 0.00 (0) clones per wing.

What about the “Mann-Whitney Test” value ([2]; 0.107 mM) of the same molecule?
Its value is “n.s”.

What about the cytotoxicity (HL60 cells [3]; HL60, 0.7 mM) of the same molecule?
The cytotoxicity was “did not show cytotoxicity”.

And the “cytotoxic effect (tumoral viability)” value (HL60 cells [3])?
The value was “slight cytotoxic activities”.

And the “internucleosomal DNA fragmentation ladder pattern” value (HL60 cells [4])?
Its value is “did not show any internucleosomal fragmentation ladder pattern”.

Which “Large Spots (>2 Cells) m = 5” value ([1]; positive control alone, 120 mM) does the source give for `OO` [H2O2, hydrogen peroxide, reference compound] here?
Its value is 0.13 (5) clones per wing.

And the “Small Spots (1–2 Cells) m = 2” value ([1]; positive control alone, 120 mM)?
Its value is 0.38 (15) clones per wing.

What about the “Total Spots m = 2” value ([1]; positive control alone, 120 mM) of the same molecule?
Its value is 0.52 clones per wing and 0.52 (21) clones per wing.

And the “Twin Spots m = 5” value ([1]; positive control alone, 120 mM)?
The value was 0.03 (1) clones per wing.

And the “Mann-Whitney Test” value ([1]; positive control alone, 120 mM)?
Its value is “* (*: significant (p ≤ 0.05))”.

How did the “Large Spots (>2 Cells) m = 5” value ([1]; single treatment, 0.039 μM) turn out when `CC1=C[C@H](O)CC(C)(C)[C@H]1/C=C/C(C)=C/C=C/C(C)=C/C=C/C=C(C)/C=C/C=C(C)/C=C/C1=C(C)C[C@@H](O)CC1(C)C` [Lutein, lutein] was run?
Its value is 0.08 (3) clones per wing.

What about the “Small Spots (1–2 Cells) m = 2” value ([1]; single treatment, 0.039 μM) of the same molecule?
Its value is 0.15 (6) clones per wing.

And the “Total Spots m = 2” value ([1]; single treatment, 0.039 μM)?
The value was 0.23 (9) clones per wing.

And the “Twin Spots m = 5” value ([1]; single treatment, 0.039 μM)?
The value was 0.00 (0) clones per wing.

And the “Mann-Whitney Test” value ([1]; single treatment, 0.039 μM)?
The value was “n.s”.

What about the “Large Spots (>2 Cells) m = 5” value ([1]; single treatment, 0.615 μM) of the same molecule?
The value was 0.08 (3) clones per wing.

And the “Small Spots (1–2 Cells) m = 2” value ([1]; single treatment, 0.615 μM)?
Its value is 0.33 (13) clones per wing.

And the “Total Spots m = 2” value ([1]; single treatment, 0.615 μM)?
The value was 0.45 (18) clones per wing.

What about the “Twin Spots m = 5” value ([1]; single treatment, 0.615 μM) of the same molecule?
The value was 0.05 (2) clones per wing.

And the “Mann-Whitney Test” value ([1]; single treatment, 0.615 μM)?
The value was “n.s”.

And the “Total Spots m = 2” value ([1]; single treatment, 0.615 μM, listed as lutein)?
The value was 0.45 clones per wing.

And the “Large Spots (>2 Cells) m = 5” value ([2]; 0.039 μM)?
The value was 0.06 (2) clones per wing.

What about the “Small Spots (1–2 Cells) m = 2” value ([2]; 0.039 μM) of the same molecule?
The value was 0.06 (2) clones per wing.

And the “Total Spots m = 2” value ([2]; 0.039 μM)?
Its value is 0.13 (4) clones per wing.

What about the “Twin Spots m = 5” value ([2]; 0.039 μM) of the same molecule?
Its value is 0.00 (0) clones per wing.

What about the “Mann-Whitney Test” value ([2]; 0.039 μM) of the same molecule?
The value was “n.s”.

What about the “Large Spots (>2 Cells) m = 5” value ([2]; 0.615 μM) of the same molecule?
The value was 0.16 (5) clones per wing.

And the “Small Spots (1–2 Cells) m = 2” value ([2]; 0.615 μM)?
The value was 0.25 (8) clones per wing.

What about the “Total Spots m = 2” value ([2]; 0.615 μM) of the same molecule?
Its value is 0.47 (15) clones per wing.

What about the “Twin Spots m = 5” value ([2]; 0.615 μM) of the same molecule?
Its value is 0.06 (2) clones per wing.

And the “Mann-Whitney Test” value ([2]; 0.615 μM)?
Its value is “* (*: significant (p ≤ 0.05))”.

What about the “Total Spots m = 2” value ([2]; 0.615 μM, listed as lutein) of the same molecule?
Its value is 0.47 clones per wing.

And the “cytotoxic effect (tumoral viability)” value (HL60 cells [3])?
The value was “did not observe any cytotoxic effect”.

And the “internucleosomal DNA fragmentation ladder pattern” value (HL60 cells [4])?
Its value is “did not show any internucleosomal fragmentation ladder pattern”.
